Assay results as given in the supplement of paper PMC11061612.

Legend:
Assay in all cases: Bliss excess, mean over the matrix (fraction); higher = more synergy
[1] = system: HO-1-N-1 (Oral Cavity Carcinoma)
Method in brief: (§1)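 After 24 hours at 37°C and 5% CO2 in 1536-well plates, cells in DMEM/F12 or RPMI plus 10% FBS received two-drug dose matrices for 72 hours. Viability came from CellTiter-Glo 2.0 luminescence and was scaled as inhibition, anchored at 0 by vehicle wells and at 1 by blank wells. Combination Emax is taken as the second-highest inhibition in the matrix, and Bliss excess as the observed combination effect less EA + EB − EA·EB, with EA and EB the single-agent effects.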

[2] = system: RO82-W-1 (Thyroid Gland Carcinoma)
Method in brief: as §1

[3] = system: NCI-H2085 (Non-Small Cell Lung Carcinoma)
Method in brief: as §1

[4] = system: KURAMOCHI (Ovarian Carcinoma)
Method in brief: as §1

[5] = system: Ramos-2G6-4C10 (Burkitt's Lymphoma)
Method in brief: as §1

[6] = system: ME-1 (Acute Myeloid Leukemia)
Method in brief: as §1

[7] = system: DoTc2-4510 (Cervical Carcinoma)
Method in brief: as §1

[8] = system: Hs-578-T (Breast Carcinoma)
Method in brief: as §1

NB10 (Neuroblastoma) = system: NB10 (Neuroblastoma)
Method in brief: as §1

HOS (Osteosarcoma) = system: HOS (Osteosarcoma)
Method in brief: as §1

[9] = system: HCC-78 (Lung Adenocarcinoma)
Method in brief: as §1

[10] = system: CaR-1 (Colorectal Carcinoma)
Method in brief: as §1

[11] = system: UM-UC-3 (Bladder Carcinoma)
Method in brief: as §1

KELLY (Neuroblastoma) = system: KELLY (Neuroblastoma)
Method in brief: as §1

[12] = system: Calu-3 (Lung Adenocarcinoma)
Method in brief: as §1

[13] = system: HT-1376 (Bladder Carcinoma)
Method in brief: as §1

[14] = system: LS-180 (Colorectal Carcinoma)
Method in brief: as §1

T98G (Glioblastoma) = system: T98G (Glioblastoma)
Method in brief: as §1

[15] = system: CAL-148 (Breast Carcinoma)
Method in brief: as §1

[16] = system: TE-9 (Esophageal Squamous Cell Carcinoma)
Method in brief: as §1

Row | Structure (SMILES) | Bliss excess [1] | Bliss excess [2] | Bliss excess [3] | Bliss excess [4] | Bliss excess [5] | Bliss excess [6] | Bliss excess [7] | Bliss excess [8] | Bliss excess (NB10 (Neuroblastoma)) | Bliss excess (HOS (Osteosarcoma)) | Bliss excess [9] | Bliss excess [10] | Bliss excess [11] | Bliss excess (KELLY (Neuroblastoma)) | Bliss excess [12] | Bliss excess [13] | Bliss excess [14] | Bliss excess (T98G (Glioblastoma)) | Bliss excess [15] | Bliss excess [16]
1 | Cc1c2c(nn1C)CSCc1cc(n(C)n1)CSc1cc(c3ccccc3c1)OCCCc1c(C(=O)O)n(C)c3c-2c(Cl)ccc13 [AZD5991] + CC(=O)O[C@H]1C(=O)[C@@]2(C)[C@H]([C@H](OC(=O)c3ccccc3)[C@]3(O)C[C@H](OC(=O)[C@H](O)[C@@H](NC(=O)c4ccccc4)c4ccccc4)C(C)=C1C3(C)C)[C@]1(OC(C)=O)CO[C@@H]1C[C@@H]2O [Paclitaxel] (first compound max 1 µM, 7x7, partner max 3 µM) | 0.0062 | -0.023 | 0.0904 | 0.0479 | -0.104 | -0.0368 | -0.0508 | 0.0368 | 0.0264 | 0.103 | 0.11 | 0.038 | -0.0693 | 0.0544 | -0.0064 | -0.0424 | -0.033 | -0.0798 | 0.0436 | 0.0317
2 | CS(=O)(=O)CCNCc1ccc(-c2ccc3ncnc(Nc4ccc(OCc5cccc(F)c5)c(Cl)c4)c3c2)o1 [Lapatinib] + NC1(c2ccc(-c3nc4ccn5c(=O)[nH]nc5c4cc3-c3ccccc3)cc2)CCC1 [MK-2206] (first compound max 10 µM, 7x7, partner max 10 µM) | 0.0213 | -0.0165 | 0.0463 | 0.0264 | 0.0215 | -0.0069 | 0.0089 | 0.0381 | -0.0423 | -0.0218 | -0.0464 | -0.0032 | -0.0065 | 0.0098 | 0.0123 | -0.0333 | 0.0501 | 0.0128 | 0.0253 | -0.0208
3 | C[C@@H](Nc1cc(F)cc(F)c1)c1cc(C(=O)N(C)C)cc2c(=O)cc(N3CCOCC3)oc12 [AZD8186] + C1CN(CCC1(C(=O)N[C@@H](CCO)C2=CC=C(C=C2)Cl)N)C3=NC=NC4=C3C=CN4 [AZD5363] (first compound max 10 µM, 7x7, partner max 10 µM) | 0.0627 | -0.0132 | -0.045 | -0.037 | -0.0898 | -0.052 | -0.0017 | -0.0815 | -0.0398 | -0.0447 | 0.0408 | 0.0054 | 0.0454 | -0.0246 | 0.0001 | -0.0404 | -0.0425 | 0.0381 | -0.0019 | -0.0405
4 | Cc1nc(-c2cn3c(n2)-c2ccc(-c4cnn(C(C)(C)C(N)=O)c4)cc2OCC3)n(C(C)C)n1 [Taselisib] + O=C(Nc1ccc2[nH]nc(-c3ccncc3)c2c1)[C@@H]1CCN(CC(=O)N2CCN(c3ccc(-c4ncccn4)cc3)CC2)C1 [SCH772984] (first compound max 10 µM, 7x7, partner max 5 µM) | 0.0562 | 0.0009 | -0.0174 | 0.0721 | 0.008 | 0.0001 | 0.0435 | 0.0748 | 0.0751 | 0.0044 | 0.0886 | 0.0708 | 0.0679 | 0.135 | -0.0287 | -0.0046 | 0.0776 | 0.0838 | 0.103 | 0.0303
5 | O=C(c1cc(Cc2n[nH]c(=O)c3ccccc23)ccc1F)N1CCN(C(=O)C2CC2)CC1 [Olaparib] + COc1nnc2ccc(N3CCC(c4ccc(OCCN5CCN(C)C(=O)[C@H]5C)cc4)CC3)nn12 [AZD5153] (first compound max 10 µM, 7x7, partner max 1 µM) | -0.02 | -0.0002 | -0.0423 | -0.0231 | -0.0473 | 0.0123 | -0.0755 | -0.0551 | -0.0558 | -0.057 | -0.0169 | -0.105 | -0.0014 | -0.042 | -0.0339 | -0.0425 | -0.0495 | -0.0501 | -0.0366 | -0.0663
6 | Cc1c2c(nn1C)CSCc1cc(n(C)n1)CSc1cc(c3ccccc3c1)OCCCc1c(C(=O)O)n(C)c3c-2c(Cl)ccc13 [AZD5991] + CS(=O)(=O)CCNCc1ccc(-c2ccc3ncnc(Nc4ccc(OCc5cccc(F)c5)c(Cl)c4)c3c2)o1 [Lapatinib] (first compound max 1 µM, 7x7, partner max 10 µM) | 0.0972 | -0.0357 | 0.0494 | -0.012 | 0.0153 | -0.0089 | -0.0004 | -0.0984 | -0.0197 | -0.0365 | -0.0167 | 0.0071 | -0.001 | 0.0879 | 0.0244 | -0.0102 | 0.0651 | -0.0233 | 0.0041 | -0.0218
7 | C[C@@H](Oc1cc(-c2cnn(C3CCNCC3)c2)cnc1N)c1c(Cl)ccc(F)c1Cl [Crizotinib] + CC1=C(C(=CC=C1)Cl)NC(=O)C2=CN=C(S2)NC3=CC(=NC(=N3)C)N4CCN(CC4)CCO [Dasatinib] (first compound max 10 µM, 7x7, partner max 2 µM) | 0.0921 | 0.0517 | 0.0551 | -0.0038 | -0.0216 | -0.0061 | 0.0349 | 0.0455 | -0.0423 | -0.0153 | 0.0887 | 0.0573 | 0.0577 | -0.019 | -0.0158 | -0.0104 | -0.0156 | 0.0943 | -0.0351 | 0.0657
8 | C[C@@H]1COCCN1c1cc(C2([S@](C)(=N)=O)CC2)nc(-c2ccnc3[nH]ccc23)n1 [AZD6738] + C1CC(C1)(C(=O)[O-])C(=O)[O-].N.N.[Pt+2] [Carboplatin] (first compound max 10 µM, 7x7, partner max 10 µM) | 0.0156 | -0.0333 | -0.067 | 0.0222 | -0.0421 | -0.0565 | -0.0562 | -0.0559 | -0.0562 | -0.0209 | -0.0401 | -0.0464 | -0.0213 | -0.0516 | -0.0397 | -0.039 | 0.0068 | -0.0401 | -0.11 | -0.0215
9 | CC1(C)CCC(CN2CCN(c3ccc(C(=O)NS(=O)(=O)c4ccc(NCC5CCOCC5)c([N+](=O)[O-])c4)c(Oc4cnc5[nH]ccc5c4)c3)CC2)=C(c2ccc(Cl)cc2)C1 [Venetoclax] + CS(=O)(=O)CCNCc1ccc(-c2ccc3ncnc(Nc4ccc(OCc5cccc(F)c5)c(Cl)c4)c3c2)o1 [Lapatinib] (first compound max 1 µM, 7x7, partner max 10 µM) | -0.0212 | -0.0299 | -0.0267 | -0.0415 | 0.0377 | 0.0267 | -0.0509 | -0.0054 | -0.0238 | -0.087 | -0.0248 | -0.0553 | -0.0207 | 0.0417 | -0.0529 | -0.0404 | -0.0428 | -0.0049 | -0.0237 | -0.0254
10 | CS(=O)(=O)CCNCc1ccc(-c2ccc3ncnc(Nc4ccc(OCc5cccc(F)c5)c(Cl)c4)c3c2)o1 [Lapatinib] + Cn1cnc2c(F)c(Nc3ccc(Br)cc3Cl)c(C(=O)NOCCO)cc21 [Selumetinib] (first compound max 10 µM, 7x7, partner max 10 µM) | 0.145 | -0.0093 | -0.0366 | -0.0116 | 0.0139 | 0.0694 | -0.0459 | -0.0311 | 0.0376 | -0.0848 | -0.0196 | 0.0337 | 0.0547 | -0.0152 | -0.009 | 0.0188 | 0.0947 | 0.0075 | 0.0085 | -0.0341
11 | C=CCn1c(=O)c2cnc(Nc3ccc(N4CCN(C)CC4)cc3)nc2n1-c1cccc(C(C)(C)O)n1 [AZD1775] + Nc1ccn([C@@H]2O[C@H](CO)[C@@H](O)C2(F)F)c(=O)n1 [Gemcitabine] (first compound max 1 µM, partner max 0.3 µM) | 0.0188 | -0.0271 | 0.032 | 0.0284 | 0.186 | -0.0044 | 0.033 | 0.045 | 0.0509 | 0.0754 | 0.0795 | -0.0001 | 0.0758 | 0.0306 | -0.013 | -0.0432 | -0.0906 | 0.0257 | 0.0035 | -0.0253
12 | C=CCn1c(=O)c2cnc(Nc3ccc(N4CCN(C)CC4)cc3)nc2n1-c1cccc(C(C)(C)O)n1 [AZD1775] + CCc1c2c(nc3ccc(O)cc13)-c1cc3c(c(=O)n1C2)COC(=O)[C@]3(O)CC [SN-38] (first compound max 1 µM, partner max 0.3 µM) | -0.0092 | -0.0352 | -0.0202 | -0.0053 | 0.0943 | -0.0047 | -0.0173 | 0.0934 | -0.141 | -0.0934 | 0.0002 | -0.0429 | -0.0431 | -0.0534 | -0.0341 | -0.0194 | -0.115 | 0.0057 | -0.0022 | -0.0022
